According to patent US10969389B2, “Method to monitor and quantify interphase nuclear envelope rupture events” (INSTITUT CURIE, priority 2016, dated 2021):

Test system: RPE1 cells
Assay: Cell death after passing a constriction in micro-channels, with DNA repair inhibited by ATMi
Format: cell-based
Conditions: ATMi 10 μM
Procedure: Micro-channels were prepared as previously described (Heuzé M L et al, 2011, 769, pp. 415-434). Briefly, polydimethylsiloxane (PDMS) (GE Silicones) was used to prepare 7 μm wide and 5 μm high micro-channels with constrictions of varying lengths and widths from a self-made mold. For HeLa cells, larger channels of 12 μm width and 5 μm height were used because of their larger nuclei. Channels with constrictions were incubated with 15 μg/mL of fibronectin for 30 min then washed with PBS at least 3 times and finally incubated with medium (containing drugs if necessary) for at least 5 hours before adding cells. Not that the height inside constriction varied depending on the width: height was 2 μm for 1.5 μm wide constrictions, 3.5 μm for 2 μm wide constrictions, 4 μm for 3 μm and 4 μm wide constrictions, and 5 μm for 5 μm wide constrictions.
siRNA 5′-AAAGCAUGGACGAUCAGGAAG-3′ (SEQ ID NO: 6) was used to deplete CHMP3 (Jimenez Science 2014), SMARTpool for SUN1 and SUN2 (Dharmacon, GE LifeSciences), both 5′-GGUGGUGACGAUCUGGGCU-3′ (SEQ ID NO: 7); and 5′-[…]-3′(SEQ ID NO: 8) to target LMNA. Non-targeting siRNA (Dharmacon, GE Life Technologies) was used as the control. siRNA was transfected with Lipofectamine RNAiMAX (Invitrogen). Cells were transfected with 120 nM siRNA 48 h and again 24 h before the experiment.
For immunofluorescence, secondary antibodies anti-mouse-Alexa488 and anti-Goat-Alexa488 (Jackson ImmunoResearch Laboratories) were used. ATMi (KU-55933, TOCRIS) was used at 10 μM to inhibit DNA repair.
The inventors hypothesized that efficient resealing was responsible for the high survival rate of cells passing through constrictions. The inventors thus quantified the occurrence of cell death after passage through a single constriction in RPE1 cells either depleted for LMNA/C, or for CHMP3. As expected from previous work by others, the inventors found a dramatic increase in death in LMNA/C-depleted cells (FIG. 4A), even inside straight channels, but stronger when cells were passing constrictions where the NE ruptured for longer periods of time.
The inventors therefore hypothesized that the cell death observed upon migration through constrictions in LMNA/C-depleted cells could be caused by a defect in DNA repair combined with a high degree of DNA damage due to prolonged nuclear envelope opening. To test this hypothesis, the inventors inhibited DNA repair using an ATM inhibitor (ATMi, Fig S4E; 22), in control cells and in cells depleted for LMNA/C, or CHMP3.

With `O=c1cc(-c2cccc3c2Sc2ccccc2S3)oc(N2CCOCC2)c1` [ATMi, KU-55933] the “level of cell death” value (CHMP3-depleted RPE1 cells migrating through constrictions) was “about 30%”, the “level of cell death” value (CHMP3-depleted RPE1 cells that did not migrate through constrictions) was “no effect” and the “level of cell death” value (LMNA/C-depleted RPE1 cells) was “further increased”. For the same molecule, the “level of cell death” value (control RPE1 cells) was “no effect”.
